Data published in patent US20230143604A1, “QW DOSING OF GIP RECEPTOR AGONIST PEPTIDE COMPOUNDS AND USES THEREOF” (TAKEDA PHARMACEUTICAL COMPANY LIMITED, priority 2020, published 2023).
Read-outs that look alike come from different tables or passages of the source.

Tests used:
[1] = Dog plasma protein binding (PPB); type: in vitro ADME; conditions: dog, serum, pH 7.4
Outline: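 Dog serum replaced human serum, with the protocol and analysis otherwise the same as for human plasma protein binding. Values are reported as fraction unbound (Fu,plasma) expressed as a percentage.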

[2] = Human plasma protein binding (PPB); type: in vitro ADME; conditions: human, plasma
Outline: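 Peptides spiked at 1000 nmol/L into pooled human K2-EDTA plasma adjusted to pH 7.4, incubated 30 min at 37 °C, then ultracentrifuged at ~450,000 g, 4 °C for 3 h. Fu derived from LC-MS/MS (MRM) peak area ratios, supernatant versus plasma.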

male ferrets = type: in vivo
Procedure: 1. Effect of subcutaneously administered GIP receptor agonist peptide in morphine-induced acute emetic model.
To evaluate the antiemetic effect, the GIP receptor agonist peptides other than natural human GIP are subcutaneously administered into male ferrets 24 hrs before morphine administration. Up to 60 minutes after morphine administration, the condition of the ferrets is monitored to record the frequencies and time points of abdominal contraction motions, vomiting behaviors, licking with the tongue, and fidgety behavior occurring. GIP receptor agonist peptide compounds of the present disclosure dosed at 0.3-10 nmol/kg attenuated the morphine (0.6 mg/kg, s.c.)-induced emesis in the ferrets.
GIP receptor agonist peptides are dissolved with a vehicle (0.09 w/v % tween 80/10% DMSO/saline), respectively, to prepare test solutions. […] of the test solutions and the vehicle are subcutaneously administered to ferrets (4 in each group), respectively. At the time of each of 4 or 24 hours after administration, 0.6 mg/kg of morphine is subcutaneously administered.

Dogs = type: in vivo; conditions: 30 nmol/kg s.c.
[3] = Pharmacokinetics in dog after IV and SC dosing; conditions: in vivo, 3 nmol/kg
Outline: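 Dogs were dosed IV or SC at 1 mL/kg with peptide at 3 nmol/mL in 10% DMSO/0.09% Polysorbate/PBS pH 7.4. K2-EDTA plasma was sampled to 336 h, and peptide was quantified by LCMS to derive half-life.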

physchem = assay: physchem
Outline: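 3 mg of peptide treated with 100 μL portions of 200 mM phosphate buffer pH 7.4, sonicating/vortexing up to 1 min, with further buffer added until fully dissolved. Solubility then quantified by HPLC.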

CC[C@H](C)[C@H](NC(=O)[C@H](CO)NC(=O)[C@H](Cc1ccc(O)cc1)NC(=O)[C@H](CC(=O)O)NC(=O)[C@H](CO)NC(=O)[C@@H](NC(=O)[C@H](Cc1ccccc1)NC(=O)[C@@H](NC(=O)CNC(=O)[C@H](CCC(=O)O)NC(=O)C(C)(C)NC(=O)[C@H](Cc1ccc(O)cc1)NC)[C@@H](C)O)[C@@H](C)CC)C(=O)N[C@@H](C)C(=O)N[C@@H](CC(C)C)C(=O)N[C@@H](CC(=O)O)C(=O)N[C@@H](CCCNC(=N)N)C(=O)N[C@@H](CCCCNC(=O)CNC(=O)CNC(=O)CNC(=O)CNC(=O)CNC(=O)CCCCCCCCCCCCCCCCC(=O)O)C(=O)N[C@@H](C)C(=O)N[C@@H](CCC(N)=O)C(=O)NC(C)(C)C(=O)N[C@@H](CC(=O)O)C(=O)N[C@@H](Cc1ccccc1)C(=O)N[C@H](C(=O)N[C@@H](CC(N)=O)C(=O)N[C@@H](Cc1c[nH]c2ccccc12)C(=O)N[C@@H](CC(C)C)C(=O)N[C@@H](CC(C)C)C(=O)N[C@@H](C)C(=O)N[C@@H](CCC(N)=O)C(=O)N[C@@H](CO)C(=O)N1CCC[C@H]1C(=O)N[C@@H](CO)C(=O)N[C@@H](CO)C(=O)NCC(=O)N[C@@H](C)C(=O)N1CCC[C@H]1C(=O)N1CCC[C@H]1C(=O)N1CCC[C@H]1C(=O)N[C@@H](CO)C(N)=O)C(C)C [Compound 50, Me-Y-Aib-E-G-T-F-I-S-D-Y-S-I-A-L-D-R-Km-A-Q-Aib-D-F-V-N-W-L-L-A-Q-S-P-S-S-G-A-P-P-P-S-NH2]
fraction unbound at 30 min, 1000 nmol/L [1]: 0.0006 | free unbound peptide in human plasma (in words) [2]: optimum free unbound peptide | % inhibition of emetic events at doses (nmol/kg) and timepoints shown in ferret morphine model (male ferrets; 4 hrs, 0.3 nmol/kg s.c.): 4 hrs: 27% (0.3 nmol/kg); | effect on morphine-induced emesis in ferrets (in words) (male ferrets; morphine 0.6 mg/kg s.c., peptides dosed at 0.3-10 nmol/kg s.c.): effective in completely inhibiting the frequency of emesis | % inhibition of emetic events at doses (nmol/kg) shown in dog apomorphine model (Dogs; after 8 hrs (upper)): 82% (30 nmol/kg) | % inhibition of emetic events at doses (nmol/kg) shown in dog apomorphine model (Dogs; after 72 hours (lower)): 86% (30 nmol/kg) | half-life ([3]; iv): 74 h | MRT last ([3]; sc): 103 h | solubility (physchem; pH 7.4): ≥ 15 mg/mL | solubility (physchem; pH 7.4, aqueous buffer): ≥ 60 mg/mL
